The values below come from paper PMC5862576, “Mitochondrial fission as a driver of stemness in tumor cells: mDIVI1 inhibits mitochondrial function, cell migration and cancer stem cell (CSC) signalling” (Oncotarget, 2018).

SMILES strings stand for the structures.

What all share (type): cell-based, Human
Assay [1] relates to MCF7 cells. Kind of assay: DAPI immunofluorescence staining (binucleated cells). The conditions noted are these: 50 µM; data not shown.
Assay [2] deals with MCF7 cells. Kind of assay: DAPI viability of cells in suspension (anoikis resistance, FACS). The method, then: Following mDIVI1 treatment, MCF7 cells grown either in suspension or as monolayers were analysed for their expression of CD24 and CD44. The surviving fraction after 2 days and 5 days of growth was analyzed by FACS. MCF7 cells were either trypsinised or spun down and trypsinised and incubated with CD24 (IOTest CD24-PE, Beckman Coulter) and CD44 (APC mouse anti-human CD44, 559942, BD Pharmingen) for 15 minutes on ice. Cells were then rinsed twice in PBS, spun down, and resuspended with DAPI dye (D1306, Molecular probes) at 3 μM in PBS for 10 minutes. Samples were then analyzed by FACS (Fortessa, BD Bioscence). Only the live cell population, identified using the DAPI staining, was analyzed for CD24/CD44 expression. Data were analyzed using FlowJo software.

A further assay has as its system Notch signalling. Kind of assay: Luciferase reporter assay MCF7-GFP-Rbp/Jk(luc). Conditions: 50 µM, 2 and 5 days. The procedure: The Cignal Lenti reporter assay (luc) was used to monitor the activity of several signalling pathways in MCF7-GFP cells as explained previously. Luciferase Assay System (E1501, Promega) was performed according to manufacturer’s instructions. 1 × 10^4 MCF7 were seeded in black-walled 96 well plates. When cells were attached, drug treatments were added for 18, 48 hours and 5 days. After treatment, Luciferase Assay was performed according to manufacturer’s instructions and light signal was acquired in the Xenogen VivoVision IVIS Lumina. Results were normalized by SRB staining of cells grown in 96-well plates in parallel.
SRB (S9012, Sigma) measures total biomass by staining cellular proteins. After treatment, cells were fixed in 10% tricloroacetic acid (T9159, Sigma) for 1 hour at 4° C, stained with SRB (S9012, Sigma) for 15 minutes, and washed 3 times with 1% acetic acid (27225, Sigma). The incorporated die was solubilized with 10 mM Tris Base, pH 8.8 (T1503, Sigma). Absorbance was spectrophotometrically measured at 562 nm in a FluoStar Omega plate reader (BMG Labtech). Background measurements were subtracted from all values.

The subject of assay [3] is MCF7 cells. Put plainly: Label-free semi-quantitative proteomics. The conditions noted are these: 10 µM, 48 hours vs vehicle. The method, then: HPLC gradient grade acetonitrile was obtained from Fisher Scientific. Briefly, 2 × 10^6 MCF7 cells were seeded in 15 cm plates until cells were attached. […] As control, vehicle-treated cells were processed in parallel. After 48 hours of treatment, cells were lysed in RIPA buffer (R0278, Sigma) and kept at 4° C for 20 minutes with rotation. Lysates were cleared by centrifugation for 10 minutes at 10,000 × g and supernatants were collected and kept frozen at −80° C. Lysate samples were thawed to room temperature and their concentrations equalised to 1 µg/µL (50 µL volume) with RIPA buffer, and further processed for trypsin digestion by sequential reduction of disulphide bonds with TCEP and alkylation with MMTS. Briefly, 1 µL benzonase (Novagen) was added to the 50 µL aliquot and placed on ice for 15 minutes. The sample was then taken to dryness using a SpeedVac, and resuspended in 22.5 µL trypsin reaction buffer (40 mM ammonium bicarbonate and 9% acetonitrile). One µL of 50 mM TCEP solution was added to each sample, mixed briefly and placed on a heater block at 60° C for 60 minutes. After cooling to room temperature, 0.5 µL of 200 mM MMTS solution was added to each sample and allowed to react for 15 minutes. Trypsin was added in two waves to ensure efficient digestion of the sample. Firstly, 20 µg of sequencing grade trypsin was resuspended in 1800 µL of trypsin reaction buffer; 225 µL of this solution were added to each sample for digestion, and the reactions were left at 37° C overnight with shaking (600 rpm). The following morning, a further aliquot of trypsin was added. Two ml of trypsin reaction buffer was added to […] of sequencing grade trypsin; 250 µL of this solution were added to each of the digest samples from overnight, and the reactions were left at 37° C for 4 hours with shaking (600 rpm). […] The digested solution was diluted in 7.5 mL of acetonitrile containing 0.3% formic acid. PolyhydroxyethylA SPE 12 µm, 300A, 300mg cartridges (obtained from PolyLC) were used for the HILIC procedure. Prior to use, cartridges required an overnight soak in 50 mM formic acid followed by rinsing with water the following day. […] The diluted samples were loaded onto the cartridges and washed with a further 10 mL Buffer A. Finally, peptides were eluted in 1 mL Buffer C (9 parts Buffer B plus 1 part Buffer A) and the samples dried on a Speedvac to remove organic solvent prior to LC-MS/MS analysis. Lyophilised digests were resuspended in 50 µL of 0.1% TFA to give an approximate concentration of 1 µg/µL. One µL injection volumes were used throughout resulting in an on-column peptide loading of approximately 1 µg per injection. Analysis was performed in quintuplicate for each sample. All LC-MS/MS analyses were performed on an LTQ Orbitrap XL mass spectrometer coupled to an Ultimate 3000 RSLCnano system (Thermo Scientific). One µL injection volumes were used throughout and samples loaded directly onto the analytical column, PepMap RSLC C18, 2 µm × 75 µm id × 50 cm (Thermo Scientific). The composition (v/v) of LC buffers were as follows; […] Peptides were loaded directly onto the column at a flow rate of 400 nl/min with an initial mobile phase composition of 1% B. […] The column was then allowed to re-equilibrate to 1% B for a total analysis time of 74 minutes. The mass spectrometer was instructed to perform data dependent acquisition on the top six precursor ions, which were measured in the Orbitrap FTMS detector over the mass range 370–1200 m/z, at a nominal resolution of 60,000. […] Gas-phase fractionation was performed on the five replicate injections such that MS/MS data was collected for precursor ion range 370–494 m/z Injection 1, 494–595 m/z Injection 2, 595–685 m/z Injection 3, 685–817 m/z Injection 4 and 817–1200 m/z Injection 5. Xcalibur raw data files acquired on the LTQ-Orbitrap XL were directly imported into Progenesis LCMS software (Waters Corp) for peak detection and alignment. Data were analysed using the Mascot search engine. […]

Consider `COc1cc(-n2c(=S)[nH]c3ccccc3c2=O)c(Cl)cc1Cl` [mDIVI1, 3-(2,4-Dichloro-5-methoxyphenyl) 2,3-dihydro 2-thioxo-4(1H) quinazolinone], for which, in the assay with MCF7 cells [1], the “binucleated cells (failure of cytokinesis)” value is “increase in binucleated cells”. In addition, the “cell viability under anchorage-independent conditions (DAPI) vs vehicle” value in the assay on MCF7 cells [2] was “no significant differences”. In the assay with Notch signalling, the “Notch/Rbp pathway luciferase activity” value is given as “strikingly caused the inhibition”. Also, in the assay with MCF7 cells [3], the “BMP7 expression change (proteomics)” value is listed as -47.17, the “CELSR2 expression change (proteomics)” value was −1.6, the “EPCAM expression change (proteomics)” value is reported as −1.58 and the “EphA2 expression change (proteomics)” value was -1.74. Also, in the assay with MCF7 cells [3], the “F11 receptor expression change (proteomics)” value is reported as −1.70, the “LAMP1 upregulation (proteomics)” value was determined as 2.83, the “STAT3 expression change (proteomics)” value was -1.83 and the “ZO-1 expression change (proteomics)” value is reported as −1.62. Also, in the assay with MCF7 cells [3], the “collagen type IV upregulation (proteomics)” value is listed as 1.9 fold, the “desmoplakin expression change (proteomics)” value is −4.58, the “junction plakoglobin expression change (proteomics)” value is reported as −1.65 and the “keratin 8 expression change (proteomics)” value is recorded as −5.24. Also, the “keratin 18 expression change (proteomics)” value with MCF7 cells [3] is listed as −12.21. The “Hexokinase 1 (HK1) change in expression” value in the assay with MCF7 cells [3] (Glycolysis) is recorded as “↓Infinite”.
